B1: IL-4: recombinant cytokine, manufactured by PeproTech (protein, UniProt P05112 25-153, looked up)
Interleukin-4: HKCDITLQEIIKTLNSLTEQKTLCTELTVTDIFAASKNTTEKETFCRAATVLRQFYSHHEKDTRCLGATAQQFHRHKQLIRFLKRLDRNLWGLAGLNSCPVKEANQSTLENFLERLKTIMREKYSKCSS
B2: IL-7: cytokine (protein, UniProt P13232 26-177, looked up)
Interleukin-7: DCDIEGKDGKQYESVLMVSIDQLLDSMKEIGSNCLNNEFNFFKRHICDANKEGMFLFRAARKLRQFLKMNSTGDFDLHLLKVSEGTTILLNCTGQVKGRKPAALGEAQPTKSLEENKSLKEQKKLNDLCFLKRLLQEIKTCWNKILMGTKEH
B3: IL-10: cytokine (protein, UniProt P22301 19-178, looked up)
Interleukin-10: SPGQGTQSENSCTHFPGNLPNMLRDLRDAFSRVKTFFQMKDQLDNLLLKESLLEDFKGYLGCQALSEMIQFYLEEVMPQAENQDPDIKAHVNSLGENLKTLRLRLRRCHRFLPCENKSKAVEQVKNAFNKLQEKGIYKAMSEFDIFINYIEAYMTMKIRN

Assays:
[1] = tested on: RCCM cells; test: Proliferation of RCCM cells, 3H-thymidine uptake; format: cell-based, mouse; conditions: 48 hours culture, then 12 hours 3H-thymidine; for proliferation of RCCM cells in response to inhibitor (uptake amount of 3H-thymidine): 1/2 serial dilutions starting with 10 ng/ml
Description: (§1) R cells, N62.5 cells, or RCCM cells obtained in Example 1 were placed in each well of a 96-well microplate at a seeding density of 1.5×10^4 cells/well. A culture medium in which the content of RCGF was changed was used and the sensitivities of the cells to RCGF were confirmed.
(§2) The concentrations of RCGF were set to 10 v/v %, 0.1 v/v %, and 0 v/v %. The cells were cultured in an RPMI 1640 culture medium containing 10% by volume of serum at 37° C. in 5% CO2 atmosphere for 48 hours. Thereafter, ^3H-thymidine was added to the culture medium so as to give a final concentration of 0.5 μCi/ml, and the resultant was further cultured for 12 hours and the uptake amount of ^3H during the time was measured. After the reaction, the uptake amount of ^3H-thymidine was measured using MicroBeta TRIL UX (manufactured by WALLAC). In FIGS. 1 (A) to (C), black rhombuses indicate RCCM cells, black squares indicate R cells, and black triangles indicate N62.5 cells.
R cells, N62.5 cells, or RCCM cells obtained in Example 1 were placed in each well of a 96-well microplate at a seeding density of 1.5×10^4 cells/well.
(§3) In this regard, the concentration of RCGF was based on ½ serial dilutions (starting with 80% by volume of the culture medium). […] Thereafter, ^3H-thymidine was added to the culture medium so as to give a final concentration of 0.5 μCi/ml, and the resultant was further cultured for 12 hours and the uptake amount of ^3H during the time was measured. […]
R cells, N62.5 cells, or RCCM cells obtained in Example 1 were placed in each well of a 96-well microplate at a seeding density of 1.5×10^4 cells/well in the same manner as described in Example 4. ½ serial dilutions (starting with 10 ng/ml) of phorbol 12-myristate 13 acetate (PMA) were added to each well, and culturing was performed at 37° C. in 5% CO2 atmosphere for 48 hours. Thereafter, ^3H-thymidine was added to the culture medium so as to give a final concentration of 0.5 μCi/ml, which was further cultured for 12 hours and the uptake amount of ^3H during the time was measured. […]

[2] = tested on: R cells; test: Proliferation of R cells, 3H-thymidine uptake; format: cell-based, mouse; conditions: 1/2 serial dilutions starting with 10 ng/ml; 48 hours culture, then 12 hours 3H-thymidine
Description: as §1
as §2, with “cells. […]” for “cells.”
as §3

[3] = tested on: P185 cells; test: Proliferation of P185 cells (basophil-like cell line), 3H-thymidine uptake; format: cell-based; conditions: 1/2 serial dilutions starting with 10 ng/ml; 48 hours culture, then 12 hours 3H-thymidine
Description: R cells, N62.5 cells, or RCCM cells obtained in Example 1 and P185 cells (a basophil-like cell line) were placed in each well of a 96-well microplate at a seeding density of 1.5×10^4 cells/well in the same manner as described in Example 4. ½ serial dilutions (starting with 10 ng/ml) of LY294002 (a PI3K inhibitor; Cat No. FA-002, manufactured by SuperArray) and Rottlerin (a PKC inhibitor; Cat No. 557370, manufactured by CALBIOCHEM) were added to each well, which was cultured at 37° C. in a 5% CO2 atmosphere for 48 hours. Thereafter, ^3H-thymidine was added to the culture medium so as to give a final concentration of 0.5 μCi/ml, and culturing was further performed for 12 hours and the uptake amount of ^3H during the time was measured. In FIGS. 7 and 8, black squares indicate R cells, black triangles indicate N62.5 cells, black rhombuses indicate RCCM cells, and black circles indicate P185. FIG. 7 is a graph showing the response of respective cells to LY294002. FIG. 8 is a graph showing the response of respective cells to Rottlerin.

[4] = tested on: N62.5 cells; test: Proliferation of N62.5 cells, 3H-thymidine uptake; format: cell-based, mouse; conditions: 48 hours culture, then 12 hours 3H-thymidine
Description: as §1
as §2, with “cells. […]” for “cells.”
as §3

[5] = tested on: R cell; test: Maintenance / growth potential of R cells in culture with cytokines or RCGF; format: cell-based, mouse
Description: Further, anti-Thy1.2 antibodies (manufactured by Pharmingen) and complement (rabbit serum, manufactured by Pel-Freeze) were respectively added to the resulting culture at 1 μg/ml and at a final concentration of 10% by volume per 1×10^7 cells/100 μl. After about 30 minutes of reaction, […] therefrom and the cultivation was continued while the RCGF was added at various concentrations.
Thereafter, respective cell lines were cultured in accordance with the dilution method over the course of three weeks and cloned.

Row | Molecule | sensitivity / growth potential of R cell against cytokine [5] | other results
1 | CCCCCCCCCCCCCC(=O)O[C@@H]1[C@@H](C)[C@@]2(O)[C@@H](C=C(CO)C[C@]3(O)C(=O)C(C)=C[C@@H]23)[C@@H]2C(C)(C)[C@]12OC(C)=O [PMA, phorbol 12-myristate 13 acetate] |  | proliferation of RCCM cells in response to inhibitor (uptake amount of 3H-thymidine) [1]: suppressed by a low concentration
2 | CC(=O)c1c(O)c(C)c(O)c(Cc2c(O)c3c(c(C(=O)/C=C/c4ccccc4)c2O)OC(C)(C)C=C3)c1O [Rottlerin] |  | proliferation of R cells in response to inhibitor (uptake amount of 3H-thymidine) [2]: rapidly suppressed; proliferation of basophil-like cell line P185 in response to inhibitor (uptake amount of 3H-thymidine) [3]: growth inhibition; proliferation of RCCM cells in response to inhibitor (uptake amount of 3H-thymidine) [1]: rapidly suppressed; proliferation of N62.5 cells in response to inhibitor (uptake amount of 3H-thymidine) ([4]; 1/2 serial dilutions starting with 10 ng/ml): rapidly suppressed
3 | GM-CFS: cytokine | does not show sensitivity | 
4 | IFN-γ: cytokine | does not show sensitivity | 
5 | IL-5: interleukin, Th2 type cytokine | high growth potential | 
6 | IL-6: interleukin, Th2 type cytokine | high growth potential | 
7 | IL-9: interleukin, Th2 type cytokine | high growth potential | 
8 | IL-13: interleukin, Th2 type cytokine | high growth potential | 
9 | B1 | high growth potential | proliferative response of RCCM cells to RCGF / cytokines (uptake amount of 3H-thymidine) ([1]; various concentrations): no difference in growth potential; proliferative response of N62.5 cells to RCGF / cytokines (uptake amount of 3H-thymidine) ([4]; various concentrations): did not show sensitivity
10 | B2 | does not show sensitivity | 
11 | B3 | does not show sensitivity | 

From patent publication US8148058B2, “Method for screening allergic disease-related molecule and cell lines to be used in the method” (Tokyo University of Science Educational Foundation …, priority 2006, dated 2012)
